# Test results as given in patent US20220175777A1, “Inhibitors of Multidrug Resistance Transporter P-Glycoprotein” (Southern Methodist University, priority 2014, published 2022).
# Tests used:
# [1] = tested on: DU145TXR; assay: Resensitization of DU145TXR to paclitaxel by 29 variants (MTT cell viability); assay type: cell-based, human; conditions: for Fold vs PTX ÷ 29: compared to parental compound 29
# Source text: The Group 1 ChemGen/docking routine produced variants of P-gp inhibitor 29 resensitize a multidrug resistant, P-gp overexpressing prostate cancer cell line to paclitaxel. The mitochondrial reduction potential of cells is often used as an indicator for cell viability using MTT assays^40-42. Using these assays it was observed that the five Group 1 derivatives of 29 predicted through the ChemGen/docking routine and synthesized here, 216, 227, 231, 541 and 551, re-sensitized the P-gp overexpressing prostate cancer cell line, DU145TXR^33, to the chemotherapeutic, paclitaxel (FIG. 9, showing results of assays at concentrations of 3 μM, 5 μM, 7 μM, and 10 μM).
# Cytotoxicity of the chemotherapeutic, paclitaxel (PTX) to P-gp overexpressing prostate cancer cells, DU145TXR, was determined in the absence and presence of the ChemGen designed 29-variants, 216, 227, 231, 541 and 551. For each experimental compound IC50 values of PTX alone or in the presence of inhibitors, fold improvement of PTX sensitivity in the presence of inhibitor, and fold improvement of PTX sensitivity by variants compared to parental compound 29 are given.
# [2] = molecular target: P-gp (Homo sapiens, UniProt P08183)
# Sequence of P-gp (P08183 whole entry): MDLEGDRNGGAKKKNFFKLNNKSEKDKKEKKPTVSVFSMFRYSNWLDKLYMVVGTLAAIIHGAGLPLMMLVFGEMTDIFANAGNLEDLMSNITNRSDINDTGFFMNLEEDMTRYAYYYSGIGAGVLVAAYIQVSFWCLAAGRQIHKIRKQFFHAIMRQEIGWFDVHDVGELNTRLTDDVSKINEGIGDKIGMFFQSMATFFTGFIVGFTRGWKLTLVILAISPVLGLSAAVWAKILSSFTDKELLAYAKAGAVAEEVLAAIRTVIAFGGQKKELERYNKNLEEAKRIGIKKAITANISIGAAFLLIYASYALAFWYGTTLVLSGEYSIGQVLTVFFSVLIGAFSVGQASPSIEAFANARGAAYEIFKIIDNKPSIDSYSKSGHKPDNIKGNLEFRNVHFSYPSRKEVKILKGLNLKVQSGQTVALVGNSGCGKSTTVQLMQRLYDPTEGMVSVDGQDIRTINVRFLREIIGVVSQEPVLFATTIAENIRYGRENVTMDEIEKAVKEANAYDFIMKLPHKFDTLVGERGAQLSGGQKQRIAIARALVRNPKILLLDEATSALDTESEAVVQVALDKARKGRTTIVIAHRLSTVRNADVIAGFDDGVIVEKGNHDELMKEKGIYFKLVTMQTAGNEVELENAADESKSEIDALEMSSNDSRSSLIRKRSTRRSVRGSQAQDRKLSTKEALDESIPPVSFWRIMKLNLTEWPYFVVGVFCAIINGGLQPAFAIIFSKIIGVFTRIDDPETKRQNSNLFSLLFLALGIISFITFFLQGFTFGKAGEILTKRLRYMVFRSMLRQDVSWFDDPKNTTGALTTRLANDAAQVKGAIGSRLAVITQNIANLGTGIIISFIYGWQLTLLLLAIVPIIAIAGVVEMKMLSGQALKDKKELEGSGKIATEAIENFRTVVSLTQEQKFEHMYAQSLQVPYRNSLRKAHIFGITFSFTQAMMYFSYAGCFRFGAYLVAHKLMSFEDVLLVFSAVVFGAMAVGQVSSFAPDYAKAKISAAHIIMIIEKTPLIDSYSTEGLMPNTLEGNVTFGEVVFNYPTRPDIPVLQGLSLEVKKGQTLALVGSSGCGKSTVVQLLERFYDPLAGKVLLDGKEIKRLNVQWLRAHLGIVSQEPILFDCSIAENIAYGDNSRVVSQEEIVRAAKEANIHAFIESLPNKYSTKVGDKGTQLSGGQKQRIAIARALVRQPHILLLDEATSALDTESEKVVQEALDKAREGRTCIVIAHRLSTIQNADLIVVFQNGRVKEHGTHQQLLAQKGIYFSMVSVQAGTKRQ
# Protocol: Stimulation of basal ATPase by 29-variants was used as an indicator that a compound may be a P-gp transport substrate. Effects on stimulated P-gp ATPase activity indicated whether a compound directly interfered with ATP usage by the protein (***, p<0.001; **, p<0.01; *, p<0.1; NS, not significant). Quantitative cellular accumulation of 29-variants was performed using LC-MS/MS and is presented as a ratio of the cellular amounts of 29-variants in the presence of P-gp inhibitor, tariquidar, divided by amounts accumulated in its absence. […] Binding of an ATP analog, SL-ATP, to P-gp was used to determine whether ATP binding to P-gp was affected by the 29-variants. Values+/−standard deviations are shown for at least three different P-gp preparations and three independent SL-ATP titration experiments. The values for SL-ATP binding in the presence of 29 were taken directly from Brewer et al. (2014).
# Intracellular accumulation of compound 29 variants. Cell accumulation assays for each of the 29 variants were performed as in reference^28 to more directly assess whether the compounds were indeed transport substrates for P-gp.
# [3] = molecular target: Normal Human MDR1 P-glycoprotein (Homo sapiens, UniProt P08183); assay: ATP hydrolysis by human P-gp assembled into membrane nanodiscs; assay type: biochemical; conditions: human MDR1 P-gp in nanodiscs
# Sequence of Normal Human MDR1 P-glycoprotein (P08183 whole entry): as above
# Source text: To assess whether the observed discrepancies of compounds stimulating basal P-gp ATPase activity but not being transport substrates of the human pump in the cell culture assessments were due to the fact that these biochemical assays used a cysteineless variant of the mouse MDR3 P-glycoprotein, the experiments were repeated using normal human MDR1 P-gp. In order to stabilize the human protein for the activity assays, the protein was assembled into membrane nanodiscs as described herein.
# [4] = tested on: DU145; assay: Intrinsic toxicity, MTT survival; assay type: cell-based; conditions: Homo sapiens, DU-145, 48 hours, ± standard error
# Protocol: (§1) Percent survival determined by MTT assay calculated relative to cells treated with equal volume DMSO vehicle and represent the mean±SEM from 2-4 separate studies, each study performed in triplicate wells.
# (§2) The intrinsic in vitro toxicities of identified compounds were evaluated to determine their potential therapeutic window. This was assessed in a noncancerous cell line (HFL1) and the human prostate cancer cell lines DU145 and the MDR sub-line DU145TxR.
# [5] = tested on: DU145TXR; assay: Intrinsic toxicity, MTT survival; assay type: cell-based, human; conditions: Homo sapiens; intrinsic toxicity, 48 hours, MTT; ± standard error
# Protocol: as §1, §2
# [6] = tested on: DU145TXR; assay: Potentiation of 500 nM paclitaxel cytotoxicity (MTT); assay type: cell-based, human
# Protocol: FIGS. 4A and 4B show the in silico identified P-gp inhibitors potentiate the cytotoxic effects of paclitaxel in the MDR human prostate cancer cell line DU145TxR. […] Values represent the mean±SEM of at least two separate experiments performed in triplicate.
# A range of experimental inhibitor concentrations was added in the presence of 500 nM paclitaxel and the cell viability was assessed using the MTT assay.
# In order to compare the efficacy of inhibitors, the potentiation concentration of inhibitor resulting in 50% reduction in cell viability, PC50, in the presence of 500 nM paclitaxel was calculated from the data in FIG. 4A.
# [7] = tested on: DU145TXR; assay: Dose dependent sensitization of MDR cell line to paclitaxel (MTT); assay type: cell-based, human; conditions: 25 μM compound
# Protocol: FIGS. 6A to 6C show the dose dependent sensitization of MDR prostate cancer cell line DU145TxR. […] For reference, the DU145TxR (closed circle) and DU145 (open circle) incubated with paclitaxel only are also included. Values are mean±SEM from at least 2 separate experiments performed in triplicate wells. The data were normalized to the intrinsic toxicities as determined in studies from FIGS. 5A to 5C of each of the compounds for each of the corresponding concentrations.
# Dose Dependent Sensitization of MDR Prostate Cancer Cell Line: To determine the degree to which the MDR prostate cancer cell line DU145TxR could be sensitized to paclitaxel the inventors determined cell survival at increasing concentrations of paclitaxel in the presence of three concentrations of P-gp inhibitors. FIGS. 6A, 6B and 6C show the survival of DU145TxR at increasing concentration of paclitaxel in the presence of 5 μM, 10 μM and 25 μM of the experimental compounds, respectively. The open circles represent the parental DU145 cell line in the presence of paclitaxel without addition of any inhibitor compound. The closed circles represent the survival of the multidrug resistant DU145TxR in the presence of paclitaxel alone. […] At that concentration over 10-fold increase in paclitaxel sensitivity in DU145TxR is observed compared to DU145TxR without P-gp inhibitors. Doubling the concentration of the compounds to 10 μM approximately doubled the DU145TxR sensitivity to paclitaxel.
# [8] = tested on: A2780; assay: Hyper-sensitization of ovarian cancer cells to doxorubicin; assay type: cell-based; conditions: not chemotherapy resistant A2780
# Source text: Hyper-sensitization of cancers to chemotherapeutics. […] The sensitivity of normal, not chemotherapy resistant A2780 ovarian cancer cell lines to doxorubicin was increased by several orders of magnitude in these assays.
compound,measurement,setting,value
"Cc1cc(C)c(-c2cc(NC(=O)CSc3n[nH]c(C4CC4)n3)n(-c3ccccc3)n2)cc1C [SMU-29, 2-[(5-cyclopropyl-1H-1,2,4-triazol-3-yl)sulfanyl]-N-[2-phenyl-5-(2,4,5-trimethylphenyl)pyrazol-3-yl]acetamide]",Fold vs PTX ÷ 29,[1]; 3 μM inhibitor,1 Fold
same,Fold vs PTX,"[1]; 3 μM inhibitor, fold improvement of PTX sensitivity vs PTX alone",3 Fold
same,Fold vs PTX ÷ 29,[1]; 5 μM inhibitor,1 Fold
same,Fold vs PTX,"[1]; 5 μM inhibitor, vs PTX alone",11 Fold
same,Fold vs PTX ÷ 29,[1]; 7 μM inhibitor,1 Fold
same,Fold vs PTX,"[1]; 7 μM inhibitor, vs PTX alone",36 Fold
same,Fold vs PTX ÷ 29,[1]; 10 μM inhibitor,1 Fold
same,Fold vs PTX,"[1]; 10 μM inhibitor, vs PTX alone",101 Fold
same,Intracellular accumulation in the presence versus absence of TQR,[2],no significant difference
same,Transport substrate for P-gp,[2]; not told,not a transport substrate
same,Basal ATPase (% of DMSO),[3]; basal,88 ± 9 % of DMSO
same,Stimulated ATPase (% of DMSO),[3]; stimulated,62 ± 3 % of DMSO
same,IC50,[4],33.4 ± 0.01 µM
same,IC50,[5],37.9 ± 0.02 µM
same,Effect on paclitaxel sensitivity,[6]; 50 nM-25 μM inhibitor with 500 nM paclitaxel,strongly affected the sensitivity
same,EC50,"[6]; in the presence of 500 nM paclitaxel, 48 hours, read-out: PC50, potentiation concentration of inhibitor resulting in 50% reduction in cell viability",2.33 ± 0.01 µM
same,Sensitization to paclitaxel,[7],800 fold
same,Sensitivity to doxorubicin,[8],hyper-sensitized
